From PubChem BioAssay AID328 (DTP/NCI, 2004)
Where “and” joins values, the source holds several entries; their conditions need not be identical. Identical values can stand only once. Toxic doses and inconclusive results are not listed.

Test system: BDF1 mice, P388 leukemia ip, median survival T/C
Test: NCI In Vivo Anticancer Drug Screen. Data for tumor model P388 Leukemia (intraperitoneal) in B6D2F1 (BDF1) mice
Settings: endpoint: median survival time, higher = longer survival
How it was run: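 Each value expresses how treatment altered survival: treated-mouse outcome over vehicle-mouse outcome, both groups bearing the transplanted tumour.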

[1] = dose: 50.0 mg/kg/injection, schedule: Q04DX003 (ip), vehicle: saline
[2] = dose: 100.0 mg/kg/injection, schedule: Q04DX003 (ip), vehicle: saline
[3] = dose: 200.0 mg/kg/injection, schedule: Q04DX003 (ip), vehicle: saline
[4] = dose: 400.0 mg/kg/injection, schedule: Q04DX003 (ip), vehicle: saline
[5] = dose: 12.5 mg/kg/injection, schedule: Q01DX009 (ip), vehicle: saline with Tween-80
[6] = dose: 25.0 mg/kg/injection, schedule: Q01DX009 (ip), vehicle: saline with Tween-80
[7] = dose: 10.0 mg/kg/injection, schedule: Q01DX009 (ip), vehicle: saline

SMILES: CC(C)c1ccc(C(=O)C2CC2)cc1
- T/C (dose: 25.0 mg/kg/injection, schedule: Q04DX003 (ip), vehicle: Klucel (hydroxypropylcellulose) (HPC)): 100 % of control
- T/C (dose: 50.0 mg/kg/injection, schedule: Q01DX009 (ip), vehicle: Klucel (hydroxypropylcellulose) (HPC)): 100 % of control
- T/C (dose: 50.0 mg/kg/injection, schedule: Q04DX003 (ip), vehicle: Klucel (hydroxypropylcellulose) (HPC)): 87 % of control
- T/C (dose: 100.0 mg/kg/injection, schedule: Q01DX009 (ip), vehicle: Klucel (hydroxypropylcellulose) (HPC)): 113 % of control
- T/C (dose: 100.0 mg/kg/injection, schedule: Q04DX003 (ip), vehicle: Klucel (hydroxypropylcellulose) (HPC)): 100 % of control
- T/C (dose: 200.0 mg/kg/injection, schedule: Q01DX009 (ip), vehicle: Klucel (hydroxypropylcellulose) (HPC)): 113 % of control
- T/C (dose: 200.0 mg/kg/injection, schedule: Q04DX003 (ip), vehicle: Klucel (hydroxypropylcellulose) (HPC)): 95 % of control

SMILES: CC(=O)c1ccccc1-n1c(C)ccc1C
- T/C (dose: 25.0 mg/kg/injection, schedule: Q01DX009 (ip), vehicle: saline + alcohol): 114 % of control
- T/C (dose: 50.0 mg/kg/injection, schedule: Q01DX009 (ip), vehicle: saline + alcohol): 122 % of control
- T/C [1]: 96 % of control
- T/C (dose: 100.0 mg/kg/injection, schedule: Q01DX009 (ip), vehicle: saline + alcohol): 116 % of control
- T/C [2]: 119 % of control
- T/C (dose: 200.0 mg/kg/injection, schedule: Q01DX009 (ip), vehicle: saline + alcohol): 99 % of control
- T/C [3]: 92 % of control
- T/C [4]: 97 % of control

SMILES: C=CC1CC[N-]CC1.C=CC1CC[N-]CC1.C=CC1CC[N-]CC1.[Cl][Cr]([Cl])[Cl]
- T/C [5]: 100 % of control
- T/C [6]: 109 % of control
- T/C (dose: 50.0 mg/kg/injection, schedule: Q01DX009 (ip), vehicle: saline with Tween-80): 104 % of control

SMILES: O=C(Cn1ccc(O)cc1=O)N1CCC2(CC1)SSC1(CCN(C(=O)Cn3ccc(O)cc3=O)CC1)S2
- T/C (dose: 100.0 mg/kg/injection, schedule: Q01DX009 (ip), vehicle: saline): 100 % of control
- T/C [2]: 105 % of control
- T/C (dose: 200.0 mg/kg/injection, schedule: Q01DX009 (ip), vehicle: saline): 100 % of control
- T/C [3]: 116 % of control
- T/C (dose: 400.0 mg/kg/injection, schedule: Q01DX009 (ip), vehicle: saline): 95 % of control
- T/C [4]: 122 % of control

SMILES: O=C(C=C(C(F)(F)F)C(F)(F)F)c1cccc(C(F)(F)F)c1
- T/C (dose: 6.25 mg/kg/injection, schedule: Q01DX009 (ip), vehicle: saline with Tween-80): 110 % of control
- T/C [5]: 120 % of control
- T/C (dose: 12.5 mg/kg/injection, schedule: Q04DX003 (ip), vehicle: saline with Tween-80): 122 % of control
- T/C [6]: 110 % of control
- T/C (dose: 25.0 mg/kg/injection, schedule: Q04DX003 (ip), vehicle: saline with Tween-80): 122 % of control

SMILES: CCCCn1cnc2c(SC3CCCC3)ncnc21
- T/C (dose: 100.0 mg/kg/injection, schedule: Q01DX009 (ip), vehicle: other): 100 % of control
- T/C (dose: 100.0 mg/kg/injection, schedule: Q04DX003 (ip), vehicle: saline sonified): 100 % of control
- T/C (dose: 200.0 mg/kg/injection, schedule: Q01DX009 (ip), vehicle: other): 90 % of control
- T/C (dose: 200.0 mg/kg/injection, schedule: Q04DX003 (ip), vehicle: saline sonified): 100 % of control
- T/C (dose: 400.0 mg/kg/injection, schedule: Q01DX009 (ip), vehicle: other): 120 % of control
- T/C (dose: 400.0 mg/kg/injection, schedule: Q04DX003 (ip), vehicle: saline sonified): 100 % of control

SMILES: CC1(C)N=C(N)N=C(N)N1c1ccc(CCCCc2ccc(S(=O)(=O)F)cc2)c(Cl)c1
- T/C (dose: 0.75 mg/kg/injection, schedule: Q01DX009 (ip), vehicle: saline): 160 % of control
- T/C (dose: 1.0 mg/kg/injection, schedule: Q01DX009 (ip), vehicle: saline): 150 % of control
- T/C (dose: 1.5 mg/kg/injection, schedule: Q01DX009 (ip), vehicle: saline): 151 % of control
- T/C (dose: 1.78 mg/kg/injection, schedule: Q01DX009 (ip), vehicle: saline): 168 % of control
- T/C (dose: 2.25 mg/kg/injection, schedule: Q01DX009 (ip), vehicle: saline): 174 % of control
- T/C (dose: 2.66 mg/kg/injection, schedule: Q01DX009 (ip), vehicle: saline): 174 % of control
- T/C (dose: 4.0 mg/kg/injection, schedule: Q01DX009 (ip), vehicle: saline): 157 % of control
- T/C (dose: 4.4 mg/kg/injection, schedule: Q01DX009 (ip), vehicle: saline): 174 % of control
- T/C (dose: 6.0 mg/kg/injection, schedule: Q01DX009 (ip), vehicle: saline): 158 % of control
- T/C (dose: 6.6 mg/kg/injection, schedule: Q01DX009 (ip), vehicle: saline): 173 % of control
- T/C [7]: 201 % of control
- T/C (dose: 12.5 mg/kg/injection, schedule: Q04DX003 (ip), vehicle: saline): 118 % of control
- T/C (dose: 15.0 mg/kg/injection, schedule: Q01DX009 (ip), vehicle: saline): 204 % of control
- T/C (dose: 18.7 mg/kg/injection, schedule: Q01DX009 (ip), vehicle: saline): 195 % of control
- T/C (dose: 37.5 mg/kg/injection, schedule: Q01DX009 (ip), vehicle: saline): 245 % of control
- T/C [1]: 154 % of control
- T/C (dose: 75.0 mg/kg/injection, schedule: Q04DX003 (ip), vehicle: saline): 150 % of control

SMILES: CC(C)CC(NC(=O)c1ccccc1)C(=O)O (stereo not drawn)
- T/C (dose: 100.0 mg/kg/injection, schedule: Q04DX003 (ip), vehicle: alkali diluted with water): 99 % of control
- T/C (dose: 200.0 mg/kg/injection, schedule: Q04DX003 (ip), vehicle: alkali diluted with water): 99 % of control
- T/C (dose: 400.0 mg/kg/injection, schedule: Q04DX003 (ip), vehicle: alkali diluted with water): 108 % of control

SMILES: CCC(O)C(C)C(O)C(C)C(O)C(C)C(O)C(C)C1OC(=O)CC(O)C(C)C(O)CC(O)CCCC(O)CCC(C)C(O)C2(O)C(=O)CC(CC(O)CC(O)CC(O)CC(O)CCCC(O)C1O)OC2=O (stereo not drawn)
- T/C (dose: 2.5 mg/kg/injection, schedule: Q01DX009 (ip), vehicle: saline): 92 % of control
- T/C (dose: 5.0 mg/kg/injection, schedule: Q01DX009 (ip), vehicle: saline): 109 % of control
- T/C [7]: 109 % of control

SMILES: CCn1c2ccc(N)cc2c2c3[nH]c(=O)c4cccn4c3ccc21
- T/C (dose: 100.0 mg/kg/injection, schedule: Q04DX002 (ip), vehicle: saline with Tween-80): 100 % of control
- T/C (dose: 200.0 mg/kg/injection, schedule: Q04DX002 (ip), vehicle: saline with Tween-80): 92 % of control

SMILES: COc1cc2cc(c1Cl)N(C)C(=O)C[C@H](OC(=O)CBr)[C@]1(C)O[C@@H]1[C@H](C)[C@@H]1C[C@@](O)(NC(=O)O1)[C@H](OC)C=C/C=C(\C)C2
- T/C (dose: 0.8 micrograms/kg/injection, schedule: Q01DX009 (ip), vehicle: saline + alcohol): 153 % of control
- T/C (dose: 1.5 micrograms/kg/injection, schedule: Q01DX009 (ip), vehicle: saline + alcohol): 170 % of control
- T/C (dose: 3.1 micrograms/kg/injection, schedule: Q01DX009 (ip), vehicle: saline + alcohol): 180 % of control
- T/C (dose: 6.2 micrograms/kg/injection, schedule: Q01DX009 (ip), vehicle: saline + alcohol): 183 % of control
- T/C (dose: 12.5 micrograms/kg/injection, schedule: Q01DX009 (ip), vehicle: saline + alcohol): 153 % of control and 200 % of control
- T/C (dose: 25.0 micrograms/kg/injection, schedule: Q01DX009 (ip), vehicle: saline + alcohol): 162 % of control and 210 % of control
- T/C (dose: 50.0 micrograms/kg/injection, schedule: Q01DX009 (ip), vehicle: saline + alcohol): 189 % of control and 210 % of control
- T/C (dose: 100.0 micrograms/kg/injection, schedule: Q01DX009 (ip), vehicle: saline + alcohol): 232 % of control and 120 % of control

SMILES: CCOc1ccc(Br)cc1/C=N/NS(=O)(=O)c1ccc(C)cc1
- T/C (dose: 100.0 mg/kg/injection, schedule: Q04DX003 (ip), vehicle: saline with Tween-80): 109 % of control
- T/C (dose: 176.0 mg/kg/injection, schedule: Q04DX003 (ip), vehicle: saline with Tween-80): 120 % of control
- T/C (dose: 200.0 mg/kg/injection, schedule: Q04DX003 (ip), vehicle: saline with Tween-80): 109 % of control
- T/C (dose: 264.0 mg/kg/injection, schedule: Q04DX003 (ip), vehicle: saline with Tween-80): 120 % of control
- T/C (dose: 400.0 mg/kg/injection, schedule: Q04DX003 (ip), vehicle: saline with Tween-80): 120 % of control
